# Laboratory results from patent US8937089B2, “Synergistic mixtures of anthranilamide invertebrate pest control agents” (priority 2004, dated 2015).
# Key:
# Assay type in all cases: in vivo
# [1] = tested on: silverleaf whitefly (Bemisia argentifolii Bellows and Perring); test: whole plant or invertebrate; settings: Table 2B
# In short: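 Whitefly-egg-infested 12–14-day-old cotton plants sprayed with compound in 10% acetone/90% water plus 300 ppm non-ionic surfactant, in triplicate. Plants then held 13 days at 28 °C and 50–70% relative humidity before mortality assessment.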
# [2] = tested on: western flower thrip (Frankliniella occidentalis Pergande); test: whole plant or invertebrate; settings: single compound, spray, 7 days
# In short: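 Compounds in 10% acetone/90% water with 300 ppm non-ionic surfactant were sprayed onto 5- to 7-day-old bean plants, 3 replicates. After 1 h drying, 22–27 adult thrips were added per unit. Units were held 7 days at 25° C, 45–55% RH, assessing contact and/or systemic control.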
# [3] = tested on: cotton melon aphid (Aphis gossypii Glover); test: whole plant or invertebrate
# In short: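 Cotton plants (6–7 days old) pre-infested with 30–40 aphids by cut-leaf method, sprayed with compound (ppm) in 10% acetone/90% water with 300 ppm X-77 surfactant, three replicates. Held 6 days at 19–21 °C, 50–70% RH; contact and/or systemic control assessed.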
# [4] = tested on: potato leafhopper (Empoasca fabae Harris); test: whole plant or invertebrate; settings: alone
# In short: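 Bean plants (5–6 days old, one primary leaf excised) were sprayed with 1 mL of compound in 10% acetone/water with 300 ppm X-77 surfactant, 3 replicates. After drying for 1 h, each unit was infested with 5 adult leafhoppers. Units were held 6 days at 19–21 °C and 50–70% RH.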
# [5] = tested on: corn planthopper (Peregrines maidis); test: whole plant or invertebrate; settings: Corn Plant Hopper
# In short: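 Compounds in 10% acetone/90% water with 300 ppm X-77 surfactant sprayed (3 replications) onto 3- to 4-day-old corn plants, dried 1 h, then infested with 10–20 corn planthopper nymphs aged 18–20 days. Held 6 days at 19-21° C. and 50-70% relative humidity; contact and/or systemic control assessed.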
# [6] = tested on: beet armyworm (Spodoptera exigua); test: Test I: control of beet armyworm, spray on tomato plants, excised leaves, % mortality and % feeding at 72 hours
# Protocol: For evaluating control of beet armyworm (Spodoptera exigua), methomyl was in the liquid formulation as Lannate® LV (29% of active ingredient). Compound 1 was in a water dispersible granules (WDG) formulation with 35% active ingredient. The test compounds were dissolved in water. Enough water was added to make 100 ppm of active ingredient for each compound. Serial dilutions were made to obtain the appropriate concentrations. To obtain the desired mixture concentrations of each compound, twice the desired concentration of each of the two mixture partner compounds were mixed together in equal volumes.
# The diluted solutions of the test compounds were sprayed to run-off on three-week-old tomato plants. The plants were placed on a rotating turntable sprayer (10 rpm). Test solutions were applied using a flat fan air-assisted nozzle (Spraying Systems 122440) at 10 psi (69 kPa). After each treated plant had dried, leaves were excised from the treated plant. The leaves were cut into pieces, which were placed singly into 5.5 cm-by-3.5 cm cells of a sixteen-cell plastic tray. Each cell contained a 2.5-cm square of moistened chromatography paper to prevent desiccation. One insect was placed in each cell. There two trays per treatment. […]
# [7] = tested on: diamondback moth (Plutella xylostella); test: whole plant or invertebrate
# Protocol: The test compounds were dissolved in water. […] Serial dilutions were made to obtain the appropriate concentrations. To obtain the desired mixture concentrations of each compound, twice the desired concentration of each of the two mixture partner compounds were mixed together in equal volumes.
# The diluted solutions of the test compounds were sprayed to run-off on three-week-old tomato plants. The plants were placed on a rotating turntable sprayer (10 rpm). Test solutions were applied using a flat fan air-assisted nozzle (Spraying Systems 122440) at 10 psi (69 kPa). […] The leaves were cut into pieces, which were placed singly into 5.5 cm-by-3.5 cm cells of a sixteen-cell plastic tray. Each cell contained a 2.5-cm square of moistened chromatography paper to prevent desiccation. One insect was placed in each cell. There two trays per treatment. Trays were held in the growth chamber at 25° C., 16-hour light:8-hour dark, 60% relative humidity for 4 days.
# For evaluating control of diamondback moth (Plutella xylostella), cabbage (var. Stonehead) plants were grown in Metromix potting soil in 10-cm pots in aluminum trays to test size (28 days, 3-4 full leaves) the plants were sprayed to the point of runoff using the turntable sprayer as described in Test I. Test compounds were formulated and sprayed on test plants as described for Test I. After drying for 2 hours, the treated leaves were excised and infested with one cabbage looper per cell and covered. The test units were placed on trays and put in a growth chamber at 25° C. and 60% relative humidity for 4 days.
# [8] = tested on: green peach aphid (Myzus persicae Sulzer); test: whole plant or invertebrate; settings: Green Peach Aphid
# In short: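 Compounds formulated in 10% acetone/water with 300 ppm X-77 surfactant were atomized onto aphid-infested radish seedlings, with three replicates per treatment. Infestation was 30–40 aphids transferred on excised leaf pieces, covering contact and systemic exposure. Test units stayed 6 days in a growth chamber at 19–21 °C and 50–70% relative humidity.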
structure (smiles),measurement,setting,value
CNC(=O)ON=C(C)SC [Methomyl],% mortality (obs),[1]; rate 10 ppm,4%
same,% mortality (obs),[1]; rate 100 ppm,3%
same,% mortality (obs),[1]; rate 1000 ppm,6%
same,% mortality (obs),[2]; rate 30 ppm,60%
same,% mortality (obs),[2]; rate 100 ppm,60%
same,% mortality (obs),[2]; rate 300 ppm,100%
same,% mortality (obs),[3]; rate 2 ppm,11%
same,% mortality (obs),[3]; rate 5 ppm,35%
same,% mortality (obs),[3]; rate 15 ppm,64%
same,% mortality (obs),[4]; rate 1 ppm,0%
same,% mortality (obs),[4]; rate 2 ppm,53%
same,% mortality (obs),[4]; rate 5 ppm,100%
same,% mortality (obs),[5]; rate 0.5 ppm,5%
same,% mortality (obs),[5]; rate 1 ppm,21%
same,% mortality (obs),[5]; rate 2 ppm,19%
same,% feeding,[6]; Methomyl 5.22 ppm,17%
same,% mortality (observed),[6]; Methomyl 5.22 ppm,6%
same,% feeding,[6]; Methomyl 10.9 ppm,29%
same,% mortality (observed),[6]; Methomyl 10.9 ppm,10%
same,% feeding,[6]; Methomyl 16.3 ppm,9%
same,% mortality (observed),[6]; Methomyl 16.3 ppm,44%
same,% feeding,[6]; Methomyl 20.6 ppm,10%
same,% mortality (observed),[6]; Methomyl 20.6 ppm,16%
same,% feeding,[6]; Methomyl 37.8 ppm,3%
same,% mortality (observed),[6]; Methomyl 37.8 ppm,44%
same,% feeding,[6]; Methomyl 100 ppm,0%
same,% mortality (observed),[6]; Methomyl 100 ppm,84%
same,% mortality (obs),[7]; rate 30 ppm,80%
same,% mortality (obs),[7]; rate 40 ppm,90%
same,% mortality (obs),[7]; rate 50 ppm,80%
same,% mortality (obs),[8]; rate 50 ppm,20%
same,% mortality (obs),[8]; rate 100 ppm,61%
same,% mortality (obs),[8]; rate 200 ppm,100%
N#CCNC(=O)c1cnccc1C(F)(F)F [Flonicamid],% mortality (obs),[1]; rate 0.1 ppm,2%
same,% mortality (obs),[1]; rate 0.2 ppm,2%
same,% mortality (obs),[1]; rate 0.5 ppm,2%
same,% mortality (obs),[2]; rate 10 ppm,20%
same,% mortality (obs),[2]; rate 100 ppm,80%
same,% mortality (obs),[2]; rate 1000 ppm,70%
same,% mortality (obs),[3]; rate 0.2 ppm,9%
same,% mortality (obs),[3]; rate 1 ppm,46%
same,% mortality (obs),[3]; rate 5 ppm,92%
same,% mortality (obs),[4]; rate 100 ppm,100%
same,% mortality (obs),[4]; rate 400 ppm,100%
same,% mortality (obs),[4]; rate 1000 ppm,40%
same,% mortality (obs),[5]; rate 2 ppm,52%
same,% mortality (obs),[5]; rate 15 ppm,42%
same,% mortality (obs),[5]; rate 150 ppm,90%
same,% mortality (obs),[7]; rate 1 ppm,0%
same,% mortality (obs),[7]; rate 15 ppm,60%
same,% mortality (obs),[7]; rate 1000 ppm,30%
same,% mortality (obs),[8]; rate 0.1 ppm,16%
same,% mortality (obs),[8]; rate 0.2 ppm,10%
same,% mortality (obs),[8]; rate 2 ppm,33%
